# Measurements as given in US9611248B2, “Chemical compounds” (Syngenta Participations AG, priority 2013, dated 2017).
# System: a variety of test species
# Experiment: Post-emergence herbicidal activity
# Assay type: in vivo
# Set-up: key to ABUTH (Abutilon theophrasti) damage score / AMARE (Amaranthus retroflexus) damage score / ALOMY (Alopecurus myosuroides) damage score / ECHCG (Echinochloa crus-galli) damage score / ZEAMX (Zea mays) damage score / SOLNI (Solanum nigrum) damage score: 0 = no damage to plant, 5 = total damage to plant
# Details: rate 1000 g/ha, evaluated after 13 days
# Summary of the method: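 Plants grown for 8 days in pots were sprayed post-emergence with compound in acetone/water (50:50) containing 0.5% Tween 20. They were kept in a glasshouse at 24/16 °C day/night, 14 h light, 65% humidity, watered twice daily. Damage was scored after 13 days (0 none to 5 total).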
SMILES,ABUTH (Abutilon theophrasti) damage score,ALOMY (Alopecurus myosuroides) damage score,AMARE (Amaranthus retroflexus) damage score,ECHCG (Echinochloa crus-galli) damage score,SETFA (Setaria faberi) damage score,ZEAMX (Zea mays) damage score
COC1=C(C)C(=O)N(c2cc(C)c(-c3ccc(C)c([N+](=O)[O-])c3)cn2)C1O (stereo not drawn) [AD119],2,2,5,1,1,0
COC1=C(C)C(=O)N(c2cc(C)c(-c3ccccc3[N+](=O)[O-])cn2)C1O (stereo not drawn) [AD120],5,2,5,4,4,0
COC1=C(C)C(=O)N(c2cc(C)c(-c3ccccc3F)cn2)C1O (stereo not drawn) [AD121],5,3,5,3,5,1
COC1=C(C)C(=O)N(c2cc(C)c(-c3ccc(F)cc3F)cn2)C1O (stereo not drawn) [AD122],5,3,5,4,4,0
COC1=C(C)C(=O)N(c2cc(C(F)(F)F)c(-c3ccoc3)cn2)C1O (stereo not drawn) [AD124],2,2,5,2,4,0
COC1=C(C)C(=O)N(c2cc(C(F)(F)F)c(-c3ccc(S(C)(=O)=O)cc3)cn2)C1O (stereo not drawn) [AD125],4,4,5,4,4,1
COC1=C(C)C(=O)N(c2cc(C(F)(F)F)c(-c3cc(F)c(F)c(F)c3)cn2)C1O (stereo not drawn) [AD126],5,3,5,3,5,1
COC1=C(C)C(=O)N(c2cc(C(F)(F)F)c(-c3ccc(C)c([N+](=O)[O-])c3)cn2)C1O (stereo not drawn) [AD127],2,1,5,4,4,4
COC1=C(C)C(=O)N(c2cc(C(F)(F)F)c(-c3ccccc3)cn2)C1O (stereo not drawn) [AD128],5,3,5,5,5,2
COC1=C(C)C(=O)N(c2cc(C(F)(F)F)c(-c3ccccc3[N+](=O)[O-])cn2)C1O (stereo not drawn) [AD129],5,2,5,4,4,2
COC1=C(C)C(=O)N(c2cc(C(F)(F)F)c(-c3ccc(F)cc3F)cn2)C1O (stereo not drawn) [AD131],5,2,5,4,4,1
COC1=C(C)C(=O)N(c2cc(C(F)(F)F)c(-c3ccccc3C)cn2)C1O (stereo not drawn) [AD132],5,2,5,4,5,2
COC1=C(C)C(=O)N(c2cc(C(F)(F)F)c(-c3cccc(F)c3)cn2)C1O (stereo not drawn) [AD133],5,2,5,4,4,3
COC1=C(C)C(=O)N(c2cc(Cl)c(-c3ccsc3)cn2)C1O (stereo not drawn) [AD134],3,1,5,2,5,1
"COC1=C(Br)C(O)N(c2cc(C(F)(F)F)ccn2)C1=O (stereo not drawn) [AE1, 3-bromo-2-hydroxy-4-methoxy-1-[4-(trifluoromethyl)-2-pyridyl]-2H-pyrrol-5-one]",4,3,5,5,3,0
COC1=C(Br)C(O)N(c2cc(C(C)(C)C)ccn2)C1=O (stereo not drawn) [AE2],4,1,2,2,4,1
COC1=C(Cl)C(O)N(c2cc(C(C)(C)C)ccn2)C1=O (stereo not drawn) [AF1],5,2,5,4,4,1
COC1=C(Cl)C(O)N(c2cc(C(F)(F)F)ccn2)C1=O (stereo not drawn) [AF2],5,4,5,5,5,3
COC1=C(Cl)C(O)N(c2cc(C(C)(F)F)ccn2)C1=O (stereo not drawn) [AF3],5,3,5,5,5,1
COc1nnc(N2C(=O)C(C)=C(Cl)C2O)cc1C (stereo not drawn) [BA1],2,2,3,1,2,1
COc1nnc(N2C(=O)C(C)=C(Br)C2O)cc1C (stereo not drawn) [BB1],1,0,0,1,2,0
"COC1=C(C)C(=O)N(c2cc(C(C)(C)C)cnn2)C1O (stereo not drawn) [BD1, 1-(5-tert-butylpyridazin-3-yl)-2-hydroxy-3-methoxy-4-methyl-2H-pyrrol-5-one]",5,4,5,5,5,1
COC1=C(C)C(=O)N(c2cc(C(C)(C)C)c(Cl)nn2)C1O (stereo not drawn) [BD2],5,4,5,5,5,2
COC1=C(C)C(=O)N(c2ccc(Cl)nn2)C1O (stereo not drawn) [BD3],1,1,2,1,2,0
COC1=C(C)C(=O)N(c2cc(C(C)(C)CCl)c(Cl)nn2)C1O (stereo not drawn) [BD4],5,4,4,4,5,0
COC1=C(C)C(=O)N(c2cc(C(C)C)c(OC)nn2)C1O (stereo not drawn) [BD5],5,5,5,5,5,3
C=CCOc1nnc(N2C(=O)C(C)=C(OC)C2O)cc1C(C)C (stereo not drawn) [BD6],1,1,0,1,2,1
CCOc1nnc(N2C(=O)C(C)=C(OC)C2O)cc1C(C)C (stereo not drawn) [BD7],5,5,5,5,5,3
COC1=C(C)C(=O)N(c2cc(C(C)(C)F)c(Cl)nn2)C1O (stereo not drawn) [BD8],5,4,5,5,5,2
COC1=C(C)C(=O)N(c2cc(C(C)(C)C)c(-c3ccc(F)cc3)nn2)C1O (stereo not drawn) [BD9],2,3,5,2,4,1
